In ChEMBL document CHEMBL1124736, “Novel quinuclidine-based ligands for the muscarinic cholinergic receptor” (J Med Chem, 1990):

Experiments:
[1] = Log of the ratio of Kapp([3H]-NMS)/Kapp([3H]-OXO-M) was determined
[2] = target: T1, Muscarinic acetylcholine receptor (Rattus norvegicus) (UniProt P08482+P08483+P08485+P08911+P10980)
Description: In vitro displacement of [3H]OXO-M from muscarinic acetylcholine receptor in rat cortical homogenates

[3] = target: T1, Muscarinic acetylcholine receptor (Rattus norvegicus); remark: listed apart in the source
Description: In vitro for its ability to displace [3H]NMS from muscarinic acetylcholine receptor in rat cortical homogenates

[4] = target: T1, Muscarinic acetylcholine receptor (Rattus norvegicus); assay: Compound was tested in vitro for its ability to displace [3H]OXO-M from Muscarinic acetylcholine receptor in rat cortical homogenates

SMILES	Log ratio [1]	K app [2] [µM]	K app [3] [µM]	K app [4] [µM]
Nc1noc(C2CN3CCC2CC3)n1 (configuration not stated)	3.08	0.0005	–	–
Cc1cnc(C2CN3CCC2CC3)o1 (configuration not stated)	–	0.04	0.73	–
Cc1nc(C2CN3CCC2CC3)no1 (configuration not stated)	1.73	0.054	2.9	–
Cc1noc(C2=CCCN(C)C2)n1	–	0.0046	1.8	–
Brc1noc(C2CN3CCC2CC3)n1 (configuration not stated)	–	0.0011	0.19	–
OC(c1ccccc1)(c1ccccc1)c1noc(C2CN3CCC2CC3)n1 (configuration not stated)	–	6.7e-05	0.00012	–
Cc1cc(C2CN3CCC2CC3)on1 (configuration not stated)	1.59	0.036	1.4	–
Clc1noc(C2CN3CCC2CC3)n1 (configuration not stated)	2.6	0.00048	0.19	–
CCc1noc(C2CN3CCC2CC3)n1 (configuration not stated)	–	0.0056	0.096	–
CNc1noc(C2CN3CCC2CC3)n1 (configuration not stated)	–	0.053	2	–
c1ccc(Cc2noc(C3CN4CCC3CC4)n2)cc1 (configuration not stated)	–	0.021	0.07	–
c1coc(C2CN3CCC2CC3)n1 (configuration not stated)	–	0.038	6.7	–
CC(=O)Nc1noc(C2CN3CCC2CC3)n1 (configuration not stated)	–	0.12	23	–
N#Cc1noc(C2CN3CCC2CC3)n1 (configuration not stated)	–	0.043	2.6	–
Cc1noc(C2=CN3CCC2CC3)n1	–	0.4	15	–
C[N+]12CCC(CC1)C(c1nc(N)no1)C2 (configuration not stated)	–	0.079	6.6	–
Cc1ccc(C2CN3CCC2CC3)o1 (configuration not stated)	1.28	0.013	0.25	–
Cc1noc(C2CN3CCC2CC3)n1 (configuration not stated)	2.69	–	–	0.0009
CN(C)c1noc(C2CN3CCC2CC3)n1 (configuration not stated)	–	0.021	0.2	–
Cc1coc(C2CN3CCC2CC3)n1 (configuration not stated)	1.72	0.027	1.4	–
COc1noc(C2CN3CCC2CC3)n1 (configuration not stated)	–	0.014	0.52	–
COC(=O)C1CN2CCC1CC2 (configuration not stated)	–	0.023	8.6	–
Cc1nnc(C2CN3CCC2CC3)o1 (configuration not stated)	2.11	0.06	7.5	–
NC(=O)c1noc(C2CN3CCC2CC3)n1 (configuration not stated)	–	1.7	39	–
Cc1coc(C2CN3CCC2CC3)c1 (configuration not stated)	1.18	0.057	1.4	–
